Measured values as given in ChEMBL document CHEMBL3526033, “Identification of human liver cytochrome P450 enzymes involved in the metabolism of SCH 530348 (Vorapaxar), a potent oral thrombin protease-activated receptor 1 antagonist” (Drug Metab Dispos, 2011).
Values belong to the compound of their own block, whether it stands above or below them.

What was measured:
Assay type in all cases: ADME
Cytochrome P450 3A4 [1] = molecular target: T1, Cytochrome P450 3A4 (Homo sapiens, UniProt P08684); experiment: Activity of human recombinant CYP3A4 assessed as enzyme-mediated drug metabolism at 10 uM after 120 mins by LC-MS/MS analysis; details: 2 h
T1 sequence (P08684 whole entry): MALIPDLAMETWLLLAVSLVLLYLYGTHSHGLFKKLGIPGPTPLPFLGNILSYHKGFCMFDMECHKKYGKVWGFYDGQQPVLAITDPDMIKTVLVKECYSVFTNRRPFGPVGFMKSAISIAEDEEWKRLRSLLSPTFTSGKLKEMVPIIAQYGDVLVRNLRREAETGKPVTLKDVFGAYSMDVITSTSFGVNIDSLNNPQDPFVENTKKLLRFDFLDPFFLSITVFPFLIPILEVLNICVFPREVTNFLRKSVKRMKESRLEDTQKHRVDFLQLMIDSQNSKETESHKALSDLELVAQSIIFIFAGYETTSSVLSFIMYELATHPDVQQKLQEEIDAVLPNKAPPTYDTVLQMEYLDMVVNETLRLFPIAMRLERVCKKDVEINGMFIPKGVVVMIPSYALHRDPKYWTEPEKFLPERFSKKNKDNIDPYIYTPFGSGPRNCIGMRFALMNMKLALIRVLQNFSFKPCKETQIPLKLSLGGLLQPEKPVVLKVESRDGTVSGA

Cytochrome P450 1A1 = molecular target: T2, Cytochrome P450 1A1 (Homo sapiens, UniProt P04798); experiment: Activity of human recombinant CYP1A1 assessed as enzyme-mediated 2-hydroxyethyl (1R,3aR,4aR,6R,8aR,9S,9aS)-9-((E)-2-(5-(3-fluorophenyl)pyridin-2-yl)vinyl)-1-methyl-3-oxododecahydronaphtho[2,3-c]furan-6-ylcarbamate formation at 25 uM after 120 mins by LC-MS/MS analysis in presence of NADPH; details: 2 h
T2 sequence (P04798 whole entry): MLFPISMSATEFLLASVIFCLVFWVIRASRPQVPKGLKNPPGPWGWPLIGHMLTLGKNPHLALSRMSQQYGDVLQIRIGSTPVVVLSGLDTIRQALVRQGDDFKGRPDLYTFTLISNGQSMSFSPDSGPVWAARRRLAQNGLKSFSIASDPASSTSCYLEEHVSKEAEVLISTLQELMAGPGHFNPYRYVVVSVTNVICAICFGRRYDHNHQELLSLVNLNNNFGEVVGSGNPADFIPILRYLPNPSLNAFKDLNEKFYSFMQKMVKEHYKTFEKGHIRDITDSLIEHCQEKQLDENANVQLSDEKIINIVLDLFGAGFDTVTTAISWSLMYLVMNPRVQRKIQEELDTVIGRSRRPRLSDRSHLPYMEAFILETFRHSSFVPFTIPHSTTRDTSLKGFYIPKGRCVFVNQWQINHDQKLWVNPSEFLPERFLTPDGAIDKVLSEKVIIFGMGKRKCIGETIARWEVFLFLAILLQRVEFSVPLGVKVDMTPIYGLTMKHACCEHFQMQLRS

Cytochrome P450 1A2 = molecular target: T3, Cytochrome P450 1A2 (Homo sapiens, UniProt P05177); experiment: Activity of human recombinant CYP1A2 assessed as enzyme-mediated drug metabolism at 10 uM after 120 mins by LC-MS/MS analysis; details: 2 h
T3 sequence (P05177 whole entry): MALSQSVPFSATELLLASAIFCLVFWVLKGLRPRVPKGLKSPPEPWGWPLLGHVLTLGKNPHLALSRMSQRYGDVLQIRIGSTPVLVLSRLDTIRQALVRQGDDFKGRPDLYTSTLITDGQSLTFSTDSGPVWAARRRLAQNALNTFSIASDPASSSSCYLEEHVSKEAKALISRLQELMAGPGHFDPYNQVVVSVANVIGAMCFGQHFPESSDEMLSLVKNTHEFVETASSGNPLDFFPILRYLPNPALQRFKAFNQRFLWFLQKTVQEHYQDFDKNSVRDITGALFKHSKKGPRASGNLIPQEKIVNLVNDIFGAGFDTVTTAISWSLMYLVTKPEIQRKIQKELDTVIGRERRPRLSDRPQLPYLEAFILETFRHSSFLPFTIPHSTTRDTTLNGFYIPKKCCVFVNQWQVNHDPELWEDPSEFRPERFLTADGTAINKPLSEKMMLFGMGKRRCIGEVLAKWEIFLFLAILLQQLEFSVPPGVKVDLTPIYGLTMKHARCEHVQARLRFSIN

Cytochrome P450 2J2 [2] = molecular target: T4, Cytochrome P450 2J2 (Homo sapiens, UniProt P51589); experiment: Activity of human recombinant CYP2J2 assessed as enzyme-mediated 2-hydroxyethyl (1R,3aR,4aR,6R,8aR,9S,9aS)-9-((E)-2-(5-(3-fluorophenyl)pyridin-2-yl)vinyl)-1-methyl-3-oxododecahydronaphtho[2,3-c]furan-6-ylcarbamate formation at 25 uM after 120 mins by LC-MS/MS analysis in presence of NADPH; details: 2 h
T4 sequence (P51589 whole entry): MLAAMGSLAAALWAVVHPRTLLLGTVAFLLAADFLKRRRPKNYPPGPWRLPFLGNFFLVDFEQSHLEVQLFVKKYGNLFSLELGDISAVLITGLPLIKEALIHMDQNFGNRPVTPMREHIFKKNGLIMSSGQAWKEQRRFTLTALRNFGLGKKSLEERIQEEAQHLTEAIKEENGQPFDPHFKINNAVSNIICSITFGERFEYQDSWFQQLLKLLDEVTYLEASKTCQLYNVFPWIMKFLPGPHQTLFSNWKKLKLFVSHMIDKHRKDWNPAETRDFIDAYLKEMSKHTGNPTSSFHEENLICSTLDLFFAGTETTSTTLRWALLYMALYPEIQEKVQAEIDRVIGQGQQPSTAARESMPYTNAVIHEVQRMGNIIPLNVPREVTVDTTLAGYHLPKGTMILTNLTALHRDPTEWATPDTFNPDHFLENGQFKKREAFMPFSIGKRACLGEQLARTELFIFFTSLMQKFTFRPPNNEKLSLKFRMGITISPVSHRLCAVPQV

Cytochrome P450 2C19 = Cytochrome P450 2C19 (Homo sapiens, UniProt P33261); experiment: Activity of human recombinant CYP2C19 assessed as enzyme-mediated drug metabolism treated with 25 uM vorapaxar after 120 mins by LC-MS/MS analysis in presence of NADPH; details: 2 h
Cytochrome P450 2C19, sequence (P33261 whole entry): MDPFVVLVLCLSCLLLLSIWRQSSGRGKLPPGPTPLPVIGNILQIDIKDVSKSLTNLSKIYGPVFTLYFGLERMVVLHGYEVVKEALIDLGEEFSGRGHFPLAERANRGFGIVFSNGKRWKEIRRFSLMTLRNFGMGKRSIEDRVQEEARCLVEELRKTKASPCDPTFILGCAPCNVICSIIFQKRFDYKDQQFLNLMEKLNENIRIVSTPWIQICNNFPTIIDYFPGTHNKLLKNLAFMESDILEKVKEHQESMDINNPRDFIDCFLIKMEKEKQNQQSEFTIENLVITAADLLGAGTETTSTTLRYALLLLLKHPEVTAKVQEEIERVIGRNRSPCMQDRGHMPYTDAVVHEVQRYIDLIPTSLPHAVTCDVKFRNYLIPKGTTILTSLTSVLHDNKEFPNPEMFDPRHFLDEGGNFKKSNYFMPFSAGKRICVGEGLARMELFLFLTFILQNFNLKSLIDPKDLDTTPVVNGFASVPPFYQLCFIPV

Cytochrome P450 4F12 = Cytochrome P450 4F12 (Homo sapiens, UniProt Q9HCS2); experiment: Activity of human recombinant CYP4F12 assessed as enzyme-mediated drug metabolism treated with 25 uM vorapaxar after 120 mins by LC-MS/MS analysis in presence of NADPH; details: 2 h
Cytochrome P450 4F12, sequence (Q9HCS2 whole entry): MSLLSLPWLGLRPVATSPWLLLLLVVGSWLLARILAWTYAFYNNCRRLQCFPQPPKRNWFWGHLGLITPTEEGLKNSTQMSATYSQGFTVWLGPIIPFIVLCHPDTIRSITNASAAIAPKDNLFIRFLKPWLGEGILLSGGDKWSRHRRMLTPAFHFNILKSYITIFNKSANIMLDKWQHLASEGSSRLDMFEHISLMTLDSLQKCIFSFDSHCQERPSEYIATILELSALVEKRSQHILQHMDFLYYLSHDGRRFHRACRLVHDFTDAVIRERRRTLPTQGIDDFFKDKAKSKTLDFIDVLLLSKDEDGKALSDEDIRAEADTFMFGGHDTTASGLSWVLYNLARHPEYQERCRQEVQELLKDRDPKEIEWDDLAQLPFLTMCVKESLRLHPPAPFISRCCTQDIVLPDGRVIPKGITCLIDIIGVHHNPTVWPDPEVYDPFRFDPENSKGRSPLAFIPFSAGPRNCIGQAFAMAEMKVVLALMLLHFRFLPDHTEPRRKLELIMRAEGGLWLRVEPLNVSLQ

Liver microsome [3] = experiment: Drug metabolism in human liver microsomes assessed as 2-hydroxyethyl (1R,3aR,4aR,6R,8aR,9S,9aS)-9-((E)-2-(5-(3-fluorophenyl)pyridin-2-yl)vinyl)-1-methyl-3-oxododecahydronaphtho[2,3-c]furan-6-ylcarbamate formation at 25 uM after 120 mins by LC-MS/MS analysis; details: 2 h
Liver microsome [4] = experiment: Drug metabolism in human liver microsomes overexpressing CYP3A4 assessed as (3R,3aS,4S,4aR,7R,8aR,9aR)-7-amino-4-((E)-2-(5-(3-fluorophenyl)pyridin-2-yl)vinyl)-3-methyldecahydronaphtho[2,3-c]furan-1(3H)-one formation at 25 uM after 120 mins by LC-MS/MS analysis in presence of tranylcypromine; details: 2 h
Cytochrome P450 3A4 [5] = molecular target: T1, Cytochrome P450 3A4; experiment: Drug metabolism assessed as human recombinant CYP3A4-mediated 2-hydroxyethyl (1R,3aR,4aR,6R,8aR,9S,9aS)-9-((E)-2-(5-(3-fluorophenyl)pyridin-2-yl)vinyl)-1-methyl-3-oxododecahydronaphtho[2,3-c]furan-6-ylcarbamate formation at 25 uM after 120 mins by LC-MS/MS analysis in presence of astemizole; details: recombinant enzyme, 2 h
Liver microsome [6] = experiment: Drug metabolism in human liver microsomes assessed as (3R,3aS,4S,4aR,7R,8aR,9aR)-7-amino-4-((E)-2-(5-(3-fluorophenyl)pyridin-2-yl)vinyl)-3-methyldecahydronaphtho[2,3-c]furan-1(3H)-one formation at 10 to 25 uM after 120 mins by LC-MS/MS analysis in presence of sulfaphenazole; details: 2 h
Cytochrome P450 2J2 [7] = molecular target: T4, Cytochrome P450 2J2; experiment: Drug metabolism assessed as human recombinant CYP2J2-mediated 2-hydroxyethyl (1R,3aR,4aR,6R,8aR,9S,9aS)-9-((E)-2-(5-(3-fluorophenyl)pyridin-2-yl)vinyl)-1-methyl-3-oxododecahydronaphtho[2,3-c]furan-6-ylcarbamate formation at 25 uM after 120 mins by LC-MS/MS analysis in presence of astemizole; details: recombinant enzyme, 2 h

Drug metabolism (Cytochrome P450 3A4 [1]): metabolite_not_detected | Drug metabolism (Cytochrome P450 1A1): metabolite_detected | Drug metabolism (Cytochrome P450 1A2): metabolite_not_detected | Drug metabolism (Cytochrome P450 2J2 [2]): metabolite_detected
Structure (SMILES): CCOC(=O)N[C@@H]1CC[C@@H]2[C@@H](C1)C[C@H]1C(=O)O[C@H](C)[C@H]1[C@H]2/C=[14CH]/c1ccc(-c2cccc(F)c2)cn1

Drug metabolism (Cytochrome P450 2C19): metabolite_detected | Drug metabolism (Cytochrome P450 4F12): metabolite_detected
Structure (SMILES): C[C@H]1OC(=O)[C@@H]2C[C@@H]3C[C@H](NC(=O)OCCO)CC[C@H]3[C@H](/C=C/c3ccc(-c4cccc(F)c4)cn3)[C@H]12

Drug metabolism (Liver microsome [3]): metabolite_not_detected | Drug metabolism (Liver microsome [4]): metabolite_not_detected | Drug metabolism (Cytochrome P450 3A4 [5]): metabolite_not_detected | Drug metabolism (Liver microsome [6]): metabolite_detected | Drug metabolism (Cytochrome P450 2J2 [7]): metabolite_not_detected
Structure (SMILES): CCOC(=O)N[C@@H]1CC[C@@H]2[C@@H](C1)C[C@H]1C(=O)O[C@H](C)[C@H]1[C@H]2/C=C/c1ccc(-c2cccc(F)c2)cn1 [VORAPAXAR]
